Source: publication PMC5693942 (Scientific Reports, 2017)
Several values for one entry are separate records, joined by “and”; a condition that tells them apart may be missing. Equal entries are not always repeated. Entries after “also recorded” stand apart in the source; their conditions may differ.

What was measured:
[1] = test system: Daphnia magna; assay: Daphnia magna acute 48 h immobilization assay (Daphtoxkit); format: in vivo; details: 48 h;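 also: test concentrations in mg per L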
Description: Six concentration levels (5 concentrations plus control, four replicate beakers for each concentrations, five individual for each beaker) were tested. […] Each experiment was repeated in triplicate.

[2] = test system: D. magna; details: ref [34]; cited from earlier work
[3] = River water simulating microcosms (degradation of FL); details: for removal of FL: river water
[4] = test system: P. promelas; details: ref [34]; cited from earlier work
[5] = test system: Tetrahymena thermophila; assay: microbe, parasite or virus in culture; format: cell-based
Description: The tests were performed in accordance with the protocols provided by the manufacturer. […] The tests were carried out in disposable spectrophotometric cells of 1 cm path-length, to enable the measurement of the optical density (OD) at 440 nm. […] This change in OD over the time period is used to quantify the degree of inhibition and subsequent calculation of the EC50. Each concentration was repeated in duplicate.

[6] = Activated sludge simulating microcosms (degradation of FL, formation of NFL); format: physicochemical; details: for transformation / removal: 24 h
Description: Activated sludge microcosm experiments were conducted in the dark and aerobic conditions. Three microcosm bioreactors were investigated in duplicate. They were filled with 2 L of fresh activated sludge collected from a local wastewater treatment plant. […] Dark conditions were simulated by covering up the flask with foil. Aerobic conditions were obtained using air from BOC air cylinder and a thorough mixing was maintained using magnetic stirrers. The experiment was 24 hours long. […] Collected samples were subsequently frozen until their analysis to prevent degradation of compounds.
The compounds studied are characterized as having low volatility and therefore volatilization was not considered as a potential removal pathway in studied microcosms. Photodegradation was also not considered (not relevant) under tested activated sludge conditions. Therefore the two important degradation mechanisms to consider were biodegradation and sorption to sludge. […] However, in this study, sorption equilibrium was assumed and therefore sorption could be considered negligible. This is because sorption is assumed to be fast when compared to biological degradation.
Several reports utilized pseudo-first-order kinetics for degradation of micropollutants in activated sludge reactors[48]–[50]. […] Pseudo-first order biodegradation rate k1 [L g^−1h^−1]

[7] = ref [3], cited from earlier work
[8] = 10 µg L^−1 microcosm, first 30 minutes

SMILES: CNCC[C@@H](Oc1ccc(C(F)(F)F)cc1)c1ccccc1 [(R)-FL, (R)-N-Methyl-3-(4-trifluoromethylphenoxy)-3-phenylpropylamine]
- Average effect (N immobile, 5 daphnids per replicate) ([1]; concentration 0.5): 0
- Average effect (N immobile, 5 daphnids per replicate) ([1]; concentration 1.5): 0.25
- Average effect (N immobile, 5 daphnids per replicate) ([1]; concentration 5): 3.25
- Average effect (N immobile, 5 daphnids per replicate) ([1]; concentration 16): 5
- Average effect (N immobile, 5 daphnids per replicate) ([1]; concentration 50): 5
- LOEC21d -grazing [2]: none
- LOEC21d -immobilization [2]: 0.43 mg/L
- LOEC21d -reproduction [2]: 0.43 mg/L
- removal of FL ([3]; dark biotic conditions (DBR), 1 µg L^−1 racemic FL, 16 days): 67.9%
- removal of FL ([3]; light abiotic conditions (LAR), 1 µg L^−1 racemic FL, 16 days): 79.2%
- removal of FL ([3]; light biotic reactor (LBR), 1 µg L^−1 racemic FL, 16 days): 96.7%
- LOEC7d -feeding [4]: 0.17 mg/L
- LOEC7d -growth [4]: 0.17 mg/L
- LOEC7d -survival [4]: 0.17 mg/L
- times more toxic than (S)-FL ([5]; Tetrahymena thermophila): 30 ×
- % I (percentage inhibition) ([5]; definitive test, conc. 0.086): -8.032%
- % I (percentage inhibition) ([5]; definitive test, conc. 24.098): 91.516%
- % I (percentage inhibition) ([5]; definitive test, conc. 79.522): 90.724%
- % I (percentage inhibition) ([5]; range test, conc. 0.005): -3.105%
- % I (percentage inhibition) ([5]; range test, conc. 0.050): 5.433%
- % I (percentage inhibition) ([5]; range test, conc. 0.500): -1.164%
- % I (percentage inhibition) ([5]; range test, conc. 5.000): 39.974%
- degradation ([6]; 10 µg L^−1): lack of degradation; also recorded: No degradation
- kbiol ([6]; 100 µg L^−1): 0.01 LgSS ^−1h^−1
- t1/2biol ([6]; 100 µg L^−1): 68 h and 68.0 h
- k1 ([6]; 100 µg L^−1, pseudo-first order): 0.02 h⁻¹
- transformation / removal ([6]; 100 µg L^−1 microcosm): 38%

SMILES: CNCCC(Oc1ccc(C(F)(F)F)cc1)c1ccccc1 (stereo not drawn) [FL, Fluoxetine, reference compound]
- EF ([3]; DAR (dark abiotic), day 1): 0.499
- EF ([3]; DAR (dark abiotic), day 2): 0.502
- EF ([3]; DAR (dark abiotic), day 3): 0.504
- EF ([3]; DAR (dark abiotic), day 4): 0.507
- EF ([3]; DAR (dark abiotic), day 9): 0.497
- EF ([3]; DAR (dark abiotic), day 10): 0.505
- EF ([3]; DAR (dark abiotic), day 11): 0.526
- EF ([3]; DAR (dark abiotic), day 15): 0.497
- EF ([3]; DBR (dark biotic), day 1): 0.506
- EF ([3]; DBR (dark biotic), day 2): 0.468
- EF ([3]; DBR (dark biotic), day 3): 0.496
- EF ([3]; DBR (dark biotic), day 4): 0.503
- EF ([3]; DBR (dark biotic), day 5): 0.495
- EF ([3]; DBR (dark biotic), day 8): 0.441
- EF ([3]; DBR (dark biotic), day 9): 0.499
- EF ([3]; DBR (dark biotic), day 10): 0.507
- EF ([3]; DBR (dark biotic), day 11): 0.495
- EF ([3]; DBR (dark biotic), day 12): 0.490
- EF ([3]; DBR (dark biotic), day 15): 0.538
- EF ([3]; DBR (dark biotic), day 16): 0.554
- EF ([3]; LAR (light abiotic), day 1): 0.497
- EF ([3]; LAR (light abiotic), day 2): 0.488
- EF ([3]; LAR (light abiotic), day 3): 0.491
- EF ([3]; LAR (light abiotic), day 4): 0.498
- EF ([3]; LAR (light abiotic), day 5): 0.511
- EF ([3]; LAR (light abiotic), day 8): 0.508
- EF ([3]; LAR (light abiotic), day 9): 0.513
- EF ([3]; LAR (light abiotic), day 10): 0.511
- EF ([3]; LAR (light abiotic), day 11): 0.512
- EF ([3]; LAR (light abiotic), day 12): 0.487
- EF ([3]; LAR (light abiotic), day 15): 0.531
- EF ([3]; LAR (light abiotic), day 16): 0.535
- EF ([3]; LBR (light biotic), day 1): 0.493
- EF ([3]; LBR (light biotic), day 2): 0.493
- EF ([3]; LBR (light biotic), day 3): 0.498
- EF ([3]; LBR (light biotic), day 4): 0.502
- EF ([3]; LBR (light biotic), day 5): 0.508
- EF ([3]; LBR (light biotic), day 8): 0.537
- EF ([3]; LBR (light biotic), day 9): 0.512
- EF ([3]; LBR (light biotic), day 10): 0.497
- EF ([3]; LBR (light biotic), day 11): 0.498
- EF ([3]; LBR (light biotic), day 12): 0.491
- EF ([3]; LBR (light biotic), day 15): 0.525
- EF ([3]; LBR (light biotic), day 16): 0.467
- removal of FL ([3]; dark abiotic conditions (DAR)): did not lead to any significant removal
- excreted in the urine as this species ([7]; after FL): 11.6%
- excreted in the feces [7]: approximately 15%
- excreted in the urine [7]: 80%
- EF ([6]; 10 µg L-1 microcosm, time 0): 0.484
- EF ([6]; 10 µg L-1 microcosm, time 0.5): 0.504
- EF ([6]; 10 µg L-1 microcosm, time 1): 0.347
- EF ([6]; 10 µg L-1 microcosm, time 1.5): 0.499
- EF ([6]; 10 µg L-1 microcosm, time 2): 0.480
- EF ([6]; 10 µg L-1 microcosm, time 3): 0.499
- EF ([6]; 10 µg L-1 microcosm, time 5): 0.429
- EF ([6]; 10 µg L-1 microcosm, time 8): 0.461
- EF ([6]; 10 µg L-1 microcosm, time 12): 0.263
- EF ([6]; 10 µg L-1 microcosm, time 24): 0.260
- lag phase ([6]; 10 µg L^−1 FL bioreactor): 3 h
- degradation (rapid removal from aqueous phase) [6, 8]: 50%
- enantiomeric fraction (EF) [6, 8]: 0.5
- enantiomeric fraction (EF) ([6]; 10 µg L^−1 reactor, after further slow removal): < 0.3
- EF ([6]; 100 µg L-1 microcosm, time 0): 0.531
- EF ([6]; 100 µg L-1 microcosm, time 0.5): 0.519
- EF ([6]; 100 µg L-1 microcosm, time 1): 0.515
- EF ([6]; 100 µg L-1 microcosm, time 1.5): 0.516
- EF ([6]; 100 µg L-1 microcosm, time 2): 0.511
- EF ([6]; 100 µg L-1 microcosm, time 3): 0.477
- EF ([6]; 100 µg L-1 microcosm, time 5): 0.431
- EF ([6]; 100 µg L-1 microcosm, time 8): 0.410
- EF ([6]; 100 µg L-1 microcosm, time 12): 0.326
- EF ([6]; 100 µg L-1 microcosm, time 24): 0.257
- lag phase ([6]; 100 µg L^−1 FL bioreactor): 2 h
- enantiomeric fraction (EF) ([6]; 100 µg L^−1 microcosm): < 0.3
- transformation / removal ([6]; 100 µg L^−1 microcosm): 60%
